Experimental data taken from US8653046B2, “Controlling transgene expression across the skin” (ETH Zurich, priority 2009, dated 2014).

How the values were obtained:
TtgA3 (TtgR-E2F4) = assay: PEACE: SEAP expression after transient co-transfection of pMG10 and pMG19 (PSV40-TtgA3-pA); type: cell-based, Pseudomonas putida DOT-T1E; conditions: 48 h
Excerpt: Three different transactivators are designed, harboring either the VP16 (TtgA1; pMG11, TtgR-VP16) (Triezenberg S. J. et al., loc. cit.), the p65 (TtgA2; pMG18, TtgR-p65) (Urlinger S., et al., 2000, Gene 247(1-2):103-110) or the human E2F4 (TtgA3; pMG19, TtgR-E2F4) (Akagi K., Kanai M., Saya H., Kozu T., Berns A., 2001, Nucleic Acids Res 29(4):e23) transactivation domains. pMG11, pMG18 or pMG19 are co-transfected with pMG10 (PTtgR1-SEAP-pA) into CHO-K1, HEK-293 as well as primary human fibroblasts and keratinocytes, and SEAP expression is profiled after 48 h of cultivation in the presence or absence of 50 μM phloretin. […] All transactivators mediate similar basal expression levels when phloretin is […] in the medium, but due to their cell-type specificity and graded maximum transcription-initiation capacities, the three transactivators offer a selection of defined expression windows.

TtgA1 (TtgR-VP16) [1] = target: T1, TtgA1 (TtgR-VP16) (Pseudomonas putida, UniProt Q9AIU0); assay: Autoregulated PEACE-controlled SEAP expression (pMG13) in CHO-K1; type: cell-based; design: expressed in transfected cells; host or cells: CHO-K1 (transient pMG11 or pMG13); also HEK-293, BHK-21, COS-7, HaCaT, HT-1080, NIH/3T3, primary human fibroblasts and keratinocytes; conditions: 50 μM phloretin, 48 h
[2] = system: microencapsulated CHO-PEACE8 implants; assay: Transdermal phloretin control of SEAP from microencapsulated CHO-PEACE8 implanted subcutaneously in mice; type: in vivo, female OF1 mice; conditions: vaseline-based skin lotion 200 μL, 0-42 mg phloretin, every day; 72 h after implantation
Experimental: (A) Microencapsulated CHO-PEACE8 are implanted subcutaneously into female OF1 mice (2×10^6 cells/mouse). 200 μL of a cream containing different amounts of phloretin (0, 5.25, 10.5, 21 and 42 mg) is applied to a shaved skin area near the implant site. SEAP serum levels are quantified 72 h post implantation.
CHO-PEACE8 is microencapsulated in coherent alginate-PLL-alginate capsules and implanted subcutaneously into mice. The back of treated mice is partially shaved and vaseline-based skin lotions (200 μL) containing different amounts of phloretin (0-42 mg) are put on every day. […]
CHO-PEACE8 and CHO-SEAP18 (Fluri D. A., Kemmer C., Daoud-El Baba M., Fussenegger M., 2008, J Control Release 131(3):211-219) are encapsulated in alginate-poly-(L-lysine)-alginate beads (400 μm; 200 cells/capsule) using an Inotech Encapsulator Research IE-50R (Recipharm, Basel, Switzerland) according to the manufacturer's instructions and the following parameters: 0.2 mm nozzle, 20 mL syringe at a flow rate of 405 units, nozzle vibration frequency of 1024 Hz and 900 V for bead dispersion. […] Thereafter, the mice are sacrificed, blood samples collected and SEAP levels are quantified in the serum which is isolated using microtainer SST tube according to the manufacturer's instructions (Beckton Dickinson, Plymouth, UK). […]

TtgA1 (TtgR-VP16) [3] = target: T1, TtgA1 (TtgR-VP16); assay: Compatibility test: phloretin-responsive SEAP production of CHO-PEACE8; type: cell-based, Pseudomonas putida DOT-T1E; design: expressed in transfected cells; host or cells: CHO-K1 (transient pMG11 or pMG13); also HEK-293, BHK-21, COS-7, HaCaT, HT-1080, NIH/3T3, primary human fibroblasts and keratinocytes; conditions: Phl 50 μM, 48 h, 100 = no inducer
Excerpt: To evaluate the functional compatibility of PEACE with the established tetracycline— [TETOFF; Gossen M., Bujard H., 1992, Proc Natl Acad Sci USA 89(12):5547-5551] and macrolide— [EOFF; Weber W., et al., 2002, Nat Biotechnol 20(9):901-907] responsive expression circuits CHO-PEACE8 is transiently transfected, transgenic for phloretin-responsive SEAP expression, with either the TETOFF-(pSAM200, PSV40-tTA-pA; pBP99, PhCMV*-1-SAMY-pA) or the EOFF-(PWW35, PSV40-ET1-pA; pBP100, PETR3-SAMY-pA) system set to control the Bacillus stearothermophilus-derived secreted α-amylase (SAMY) in response to tetracycline and erythromycin, respectively. SEAP and SAMY expression are scored 48 h after cultivation of the transfected populations in the presence (50 μM; 2 μg/mL) or absence of the inducer molecules (phloretin, tetracycline, erythromycin).
The stable CHO-PEACE8 cell line, transgenic for phloretin-controlled SEAP expression, is constructed in two steps: (i) CHO-K1 cells are co-transfected with pMG11 (PSV40-TtgA1-pA) and pSV2neo (Clontech, Cat. No. 6172-1) at a ratio of 20:1 and clonal selection results in the cell line CHO-TtgA. (ii) CHO-TtgA is co-transfected with pMG10 (PTtgR1-SEAP-pA) and pPur (Clontech, Cat. No. 6156-1) (ratio of 20:1) and the phloretin-responsive SEAP-producing double-transgenic cell line CHO-PEACE8 is chosen after clonal selection. […] Reversibility of phloretin-mediated SEAP production is assessed by cultivating CHO-PEACE8 (100,000 cells/mL) for 144 h while alternating phloretin concentrations from 0 to 50 μM every 48 h.

T1 sequence (Q9AIU0 whole entry, added parts left off): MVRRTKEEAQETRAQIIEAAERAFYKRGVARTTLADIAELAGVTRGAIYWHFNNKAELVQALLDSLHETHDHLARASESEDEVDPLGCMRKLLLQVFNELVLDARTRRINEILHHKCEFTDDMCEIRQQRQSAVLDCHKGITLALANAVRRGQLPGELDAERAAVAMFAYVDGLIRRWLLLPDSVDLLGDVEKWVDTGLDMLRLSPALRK

## O=C(CCc1ccc(O)cc1)c1c(O)cc(O)cc1O [phloretin, 3-[4-hydroxyphenyl]-1-[2,4,6-trihydroxyphenyl]-1-propanone]
TtgA3 (TtgR-E2F4); CHO-K1, phloretin 50 μM
  SEAP Production: 0.26 ± 0.08 U/L
TtgA3 (TtgR-E2F4); HEK-293, phloretin 50 μM
  SEAP Production: 0.2 ± 0.016 U/L
TtgA3 (TtgR-E2F4); HaCaT, phloretin 50 μM
  SEAP Production: 0.5 ± 0.05 U/L
TtgA1 (TtgR-VP16) [1]
  SEAP expression (autoregulated circuit): completely repressed
[2]
  SEAP serum levels in treated mice: phloretin-dependent dose-response characteristics
TtgA1 (TtgR-VP16) [3]; CHO-PEACE8 transiently transfected with macrolide-responsive control system, EM 2 μg/mL
  Relative SEAP Production (%): 2.0 ± 1.2%
TtgA1 (TtgR-VP16) [3]; CHO-PEACE8 transiently transfected with tetracycline-responsive control system, Tet 2 μg/mL
  Relative SEAP Production (%): 2.2 ± 0.2%
